Source: US4294841A, “Derivatives of 1-phenyl 3-(4-piperidyl) 1-propanone usable as drugs” (Pharmindustrie, priority 1978, dated 1981)
Where two headings read alike, the source gives them in different places.

Key:
[1] = tested on: receptors for benzodiazepines in the brain membranes (3H-diazepam binding site); test: displacement of 3H-diazepam from its binding sites (method of H. Mohler et al.); design: species or system rat
From the text: The anxiolytic activity of the benzodiazepines is well known. The presence of specific receptors for benzodiazepines in the brain membranes of the rat has also been well established (Squires et al. Nature 266, 732, (1977)) and a good correlation exists between the degree of affinity of benzodiazepines for the receiving binding sites and the pharmacodynamic effects observed in the animal and in man.
The results of Table II have been obtained by testing the products according to the method of H. Mohler et al., Life Sciences 20, 2101 (1977).

[2] = tested on: uptake of noradrenaline (NA); test: inhibition test of the uptake of noradrenaline by synaptosomes of the rat brain (hypothalamus); assay type: biochemical; conditions: read-out: I50 NA (hypothalamus)
From the text: (§1) The results are expressed by a 50% inhibitory dose (I50) which represents the dose of product, in micromoles per liter, diminishing by 50% the uptake of the neuromediator considered in the specific regions (hypothalamus, medulla+pons) where the corresponding neurons predominate.

[3] = tested on: uptake of serotonin (5-hydroxytryptamine, 5HT); test: inhibition test of the uptake of serotonin by synaptosomes of the rat brain (medulla + pons); assay type: biochemical; conditions: read-out: I50 5HT (medulla + pons)
From the text: as §1

[4] = acute toxicity in the mouse per os; design: species or system Charles River); conditions: in vivo, po, male CD1 mouse, 3 days of observation
From the text: The acute toxicities of the compounds of formula (I) have been determined on the male mouse CD1 (Charles River) per os. The LD50 have been calculated, after 3 days of observation, by the cumulative method of J. J. Reed and H. Muench (Amer. J. Hyg. 27, 493, (1938)).

[5] = tested on: ventricular arhythmias caused by aconitine; test: antiarhythmic activity, aconitine test in rats; assay type: in vivo; conditions: Rattus norvegicus, iv, read-out: ED50 (i.v.)
Protocol: The principle of the technique rests on the induction time of ventricular arhythmias caused by aconitine which is slowly perfused in rats. An antiarhythmic substance retards the occurrence of arhythmias and this delay is proportional to the activity of the molecule.
Groups of five male rats are used. An individual anaesthesia is realized (10% urethane: 1 g/kg/ip) to allow a catheterization of the vein of the penis. The electrocardiogram is recorded. At time T=0 the substance investigated is injected in the form of an aqueous solution, at a rate of 2.5 ml of solution per kg in 30 seconds. At time T=90 seconds, that is 1 minute after the end of the injection, aconitine is perfused at a rate of 20 μg per minute until the appearance of supra-ventricular systoles. The time of perfusion of the aconitine is noted.
The results are expressed by an ED50, which is the dose in mg/kg increasing by 50% the perfusion time of aconitine in comparison with the perfusion time of aconitine for the control animals.

[6] = calculated from I50, read-out: Ki

SMILES | Ki ([1]; calculated from I50) | IC50 [2] [nM] | IC50 [3] [nM] | LD50 at 72 h [4] [mg/kg] | Ki [1, 6] [nM] | ED50 [5] [mg/kg]
CN(C)CCCN1c2ccccc2CCc2ccccc21 [Imipramine, reference compound] | inactive | 500 | 120 | – | – | –
Fc1ccc(CCCC2CCNCC2)cc1 [Example 7, 4-[3-(4-Fluorophenyl)1-propyl]piperidine] | – | 3000 | 10 | 225 | 45000 | –
COc1ccc(C(O)CCC2CCNCC2)cc1 (stereo not shown) [Example 22, 1-(4-methoxyphenyl) 3-(4-piperidyl) 1-propanol] | – | – | – | 800 | 32000 | –
Oc1ccccc1CCCC1CCNCC1 [Example 20, 2-[3-(4-Piperidyl)propyl]phenol] | – | – | – | – | 29000 | 1.2
Nc1ccc(CCCC2CCNCC2)cc1 [Example 17, 4-[3-(4-Aminophenyl)propyl]piperidine] | – | – | – | – | 36000 | –
Clc1ccc(CCCC2CCNCC2)cc1 [Example 8, 4-[3-(4-Chlorophenyl)1-propyl]piperidine] | – | 900 | 90 | 235 | 36000 | –
COc1ccc(C(=O)CCC2CCNCC2)cc1 [Example 19, 1-(4-methoxyphenyl) 3-(4-piperidyl) 1-propanone] | – | – | – | 200 | 6500 | –
c1ccc(CCCC2CCNCC2)cc1 [Example 16, 4-[3-(phenyl)propyl]piperidine] | – | 240 | 2 | 200 | – | 2.5
Clc1ccc(CCCC2CCNCC2)cc1Cl [Example 9, 4-[3-(3,4-dichlorophenyl)1-propyl]piperidine] | – | 1300 | 180 | 600 | – | –
Cc1ccc(CCCC2CCNCC2)cc1 [Example 10, 4-[3-(4-Methylphenyl)1-propyl]piperidine] | – | 300 | 160 | 400 | 42000 | –
C=C[C@H]1C[N@@]2CC[C@H]1C[C@@H]2[C@@H](O)c1ccnc2ccc(OC)cc12 [Quinidine, reference compound] | – | – | – | – | – | 4
COc1ccc(CCCC2CCNCC2)cc1 [Example 6, 4-[3-(4-Methoxyphenyl) 1-propyl]piperidine] | – | 2200 | 20 | 400 | 19500 | –
